For one data set, the system named is P. falciparum 7G8. Nature of the data set: in vitro growth inhibition of P. falciparum 7G8. Particulars: Plasmodium falciparum. It is filed as cell-based.
The subject of another data set is P. falciparum W2mef. Nature of the data set: microbe, parasite or virus in culture. Type of data set: cell-based. The settings on record: Plasmodium falciparum; for IC50: read-out: IC50 (mean ± 95% confidence interval).
Data set [1] deals with P. falciparum 3D7. Nature of the data set: in vitro growth inhibition of P. falciparum 3D7 over one asexual cycle. Type of data set: cell-based. The settings on record: Plasmodium falciparum.
Excerpt: This nonlinear regression curve is representative of seven assays, each performed in triplicate.
The conditions of data set [2]: human and animal studies for SCD; cited from earlier work.
For data set [3] the following is noted: cited from earlier work.
A further data set relates to P. knowlesi YH-1. Nature of the data set: in vitro growth inhibition of P. knowlesi YH-1 adapted for culture in human erythrocytes. It is filed as cell-based. The settings on record: Plasmodium knowlesi, Erythrocyte. An excerpt: (§1) To identify a relationship between senicapoc activity and human erythrocytes, P. knowlesi H1 cultured in rhesus erythrocytes and P. knowlesi YH-1 adapted for culture in human erythrocytes were each treated with senicapoc. There was no difference between the senicapoc IC50s for H1 and YH-1 (P=0.14) (Table 1). Senicapoc was similarly effective against parasitized human and rhesus erythrocytes.

The subject of another data set is human Plasmodium strains. The data set can be described thus: in vitro growth inhibition, all human Plasmodium strains tested. Type of data set: cell-based.
For data set [4] the following is noted: patients with sickle cell disease; cited from earlier work.
For data set [5] the following is noted: primates, daily doses of 1,000 mg/kg for 9 months; cited from earlier work.
For data set [6] the following is noted: canines; cited from earlier work.
A further data set concerns P. knowlesi H1. Nature of the data set: in vitro growth inhibition of P. knowlesi H1 cultured in rhesus erythrocytes. It is filed as cell-based. The settings on record: Plasmodium knowlesi, Erythrocyte, in Macaca mulatta.
Excerpt: as §1

For the next data set, the system named is P. yoelii 17X-NL. The data set can be described thus: in vivo efficacy against blood-stage parasites in infected C57BL/6 mice. As to the method:
C57BL/6 mice infected with P. yoelii 17X-NL were treated by gavage with vehicle or senicapoc 400 or 800 mg/kg daily from days 2 to 10 post-infection (highlighted area) to mimic a preventive therapy.
FIG. 7 is a line graph showing senicapoc suppressed parasite growth in an in vivo murine model following established infection. C57BL/6 mice infected with P. yoelii 17X-NL were treated with vehicle or senicapoc 400 mg/kg twice daily from day 8 to day 15 postinfection (highlighted area) to mimic treatment of an active infection.
To establish in vivo efficacy against blood-stage parasites, C57BL/6 mice infected with P. yoelii 17X-NL (nonlethal strain) were treated with vehicle or senicapoc. […] Parasitemia increased after the drug was stopped (FIG. 6).

The test system of the next data set is P. yoelii. Type of data set: in vivo. Particulars: IK-1-/- mice, 400 mg/kg twice daily, days 8 to 15.
The test system of data set [7] is P. falciparum 3D7. Nature of the data set: growth inhibition through the 48-hour asexual blood stage by microscopy and flow cytometry. Type of data set: cell-based, Plasmodium falciparum. Particulars: P<0.008.
Method: Parasitemia was determined by flow cytometry and confirmed with microscopy (not shown). […] Data presented are representative of three replicates.
Mean fluorescence intensity (WI), determined by flow cytometry, is shown as a measure of parasite viability. […] The data point for “No drug” at 48 h was gated for schizonts only (20% of infected cells) to eliminate signal from reinvaded ring-stage parasites. Data for other time points were not gated, as schizonts represented 5% of infected cells.
To determine senicapoc's activity through the 48-hour asexual blood stage of the parasite, growth inhibition of P. falciparum 3D7 was characterized throughout the cycle by microscopy and flow cytometry.
The conditions of data set [8]: patients with SCD; cited from earlier work.
The mark [9] stands for this setting: P. falciparum 7G8, Res CQ, read-out: IC50 (mean ± 95% confidence interval).
Setting [10] is: P. falciparum 3D7, read-out: IC50 (mean ± 95% confidence interval).
Setting [11] is: read-out: IC50 (mean ± 95% confidence interval).
Setting [12] is: read-out: IC90 (mean ± 95% confidence interval).

Where two headings read alike, the source gives them in different places.

Consider `CCN(CC)CCCC(C)Nc1ccnc2cc(Cl)ccc12` (stereo not drawn) [CQ, chloroquine], for which the IC50 in the data set with P. falciparum 7G8 (7G8, read-out: IC50 (mean ± 95% confidence interval)) turned out to be 0.0979 ± 0.0204 µM; in the data set with P. falciparum W2mef, 0.316 ± 0.135 µM; in the data set with P. falciparum 3D7 [1] (3D7, read-out: IC50 (mean ± 95% confidence interval)), 0.0156 ± 0.00331 µM.

Regarding `C[C@H]1[C@@H](O)O[C@@H]2O[C@@]3(C)CC[C@H]4[C@H](C)CC[C@@H]1[C@@]24OO3` [DHA, dihydroartemisinin], the IC50 with P. falciparum 7G8 (setting [9]) is 0.00165 ± 0.00124 µM; in the data set on P. falciparum W2mef, 0.00516 ± 0.00428 µM; in the data set on P. falciparum 3D7 [1] (setting [10]) it was 0.00273 ± 0.00155 µM.

With `OC(c1cc(C(F)(F)F)nc2c(C(F)(F)F)cccc12)C1CCCCN1` (stereo not drawn) [MQ, mefloquine], the IC50 stood at 0.00363 ± 0.00058 µM with P. falciparum 7G8 (setting [9]), 0.0267 ± 0.0155 µM in the data set with P. falciparum W2mef and 0.0101 ± 0.00783 µM with P. falciparum 3D7 [1] (setting [10]).

`NC(=O)C(c1ccccc1)(c1ccc(F)cc1)c1ccc(F)cc1` [senicapoc, 2,2-bis(4-fluorophenyl)-2-phenylacetamide]: the tolerability result in data set [2] and in [5] was “well tolerated” each time. The protein binding result in data set [3] is recorded as “highly protein bound”. Further, the IC50 with P. knowlesi YH-1 (setting [11]) is 11 ± 1.38 µM; in the data set on P. knowlesi H1 (setting [11]), 17.5 ± 6.74 µM; with P. falciparum 7G8 (setting [9]) it was 10.9 ± 2.3 µM; in the data set on P. falciparum W2mef, 9.24 ± 3.13 µM; in the data set with P. falciparum 3D7 [1] (setting [10]), 6.74 ± 0.25 µM; in the data set on P. falciparum 3D7 [1] (blood-stage P. falciparum 3D7, FIG. 1, read-out: IC50) it was 6.7 µM. Besides, the IC90 in the data set with P. knowlesi YH-1 (setting [12]) is 37.4 ± 1.19 µM; in the data set on P. knowlesi H1 (setting [12]), 31.4 ± 11.8 µM; with P. falciparum 7G8 (P. falciparum 7G8, Res CQ, read-out: IC90 (mean ± 95% confidence interval)), 22.3 ± 9.52 µM; with P. falciparum W2mef (setting [12]), 12.3 ± 1.82 µM; in the data set with P. falciparum 3D7 [1] (P. falciparum 3D7, read-out: IC90 (mean ± 95% confidence interval)), 10.2 ± 2.07 µM. Also, the “IC90 higher than the IC50” value with human Plasmodium strains is reported as below 2 fold. Besides, in [4], the “peak concentrations achieved in human trials” value is on record as 337 nM. For the same molecule, in data set [6], the “serum concentrations at which cardiotoxicity developed” value is given as “exceeded 18 M”. The parasitemia in the data set on P. yoelii 17X-NL (prophylaxis on postinoculation days 2 to 10, by day 10, vehicle 12%, P=0.04) is listed as 4.3%; in the data set on P. yoelii 17X-NL (treatment 400 mg/kg twice daily on postinoculation days 8 to 15, beyond day 13, not statistically significant (P=0.058)), “lower parasitemia”. Moreover, the “activity against P. yoelii” value with P. yoelii was “active”. Further, the “Nucleic acid content measured by mean fluorescence intensity (MFI)” value in the data set with P. falciparum 3D7 [7] (at 36 h, treated cultures) is “weaker”. Besides, in the data set on P. falciparum 3D7 [7] (by 48 h postinvasion, treated cultures compared to control), the “Parasitemia measured by flow cytometry” value is on record as “reduced”. Besides, the “frequency of vasoocclusive pain episodes” value in data set [8] is on record as “failed to modify”. Further, the physiological disease markers result in data set [8] is “improved”.
